The record followed here is the supplement of paper PMC7224384.

Assay [1] deals with MDA-MB-453. The experiment in a line: drug sensitivity score (DSS), single agent (DSS (weighted AUC score)); higher = more sensitive (stronger viability decrease); extreme values may be limits of the assay. Conditions: BLU9931 0 nM; 72 h. The procedure, abridged:
(§1)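 Each 384-well plate held compounds from the FIMM Oncology set, predispensed in singlicate at five 10-fold dilutions spanning a 10,000-fold range, and each well then received 2000 MDA-MB-453 cells in medium with or without an FGFR4 inhibitor at 100 nM final. Plates stayed at 37 °C, 5% CO2 for 72 h, after which cellular ATP was measured with CellTiterGlo 2.0. Readings were converted per plate into percent viability against control wells, and the drug sensitivity score was taken as a weighted area under a four-parameter logistic fit.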

The test system of assay [2] is MDA-MB-453. Nature of the assay: drug sensitivity score (DSS), in combination with BLU9931 (DSS (weighted AUC score)); higher = more sensitive (stronger viability decrease); extreme values may be limits of the assay. The following applies: BLU9931 100 nM; 72 h. The procedure, abridged: as §1

As to `COc1c(C)cnc(Cn2cnc3c(Cl)nc(N)nc32)c1C` [BIIB021], the drug sensitivity score in assay [1] is 19.5; in assay [2], 20.1.
For `CC1(C)C(C(=O)Nc2ccc(S(=O)(=O)c3ccc(NC(=O)C4C(C)(C)C4(C)C)cc3)cc2)C1(C)C` [BRD7116], in that order: 4.5 and 3.9.
With `O=C(Nc1cccc(Nc2ncc(Br)c(NCCc3cnc[nH]3)n2)c1)N1CCCC1` [BX-912], the drug sensitivity score in assay [1] was determined as 4.5; in assay [2] it was 3.8.
`Cc1ccc(NC(=O)c2ccc(CN3CC[C@H](N(C)C)C3)c(C(F)(F)F)c2)cc1Nc1nccc(-c2cncnc2)n1` [Bafetinib]: the drug sensitivity score in assay [1] and in assay [2] was 0 each time.
On to `CCS(=O)(=O)N1CC(CC#N)(n2cc(-c3ncnc4[nH]ccc34)cn2)C1` [Baricitinib], for which the drug sensitivity score in assay [1] and in assay [2] was 0 throughout.
For the compound `O=C(/C=C/c1cccc(S(=O)(=O)Nc2ccccc2)c1)NO` [Belinostat], the drug sensitivity score stood at 21.3 in assay [1] and 20.2 in assay [2].
On to `N#CC(c1ccnc(OCc2ccc(CN3CCOCC3)cc2)n1)c1nc2ccccc2s1` (centres undefined) [Bentamapimod], for which the drug sensitivity score came to 2.6 in assay [1] and 1.3 in assay [2].
For `C=C(c1ccc(C(=O)O)cc1)c1cc2c(cc1C)C(C)(C)CCC2(C)C` [Bexarotene], in that order: 0 and 0.
In the case of `CC(O)(CS(=O)(=O)c1ccc(F)cc1)C(=O)Nc1ccc(C#N)c(C(F)(F)F)c1` (centres undefined) [Bicalutamide], the drug sensitivity score in assay [1] and in assay [2] was 2.3 throughout.
Take `CCNC(=O)CCC/C=C\C[C@@H]1[C@@H](/C=C/[C@@H](O)CCc2ccccc2)[C@H](O)C[C@@H]1O` [Bimatoprost]: the drug sensitivity score in assay [1] and in assay [2] was 0 throughout.
As to `Cn1cnc2c(F)c(Nc3ccc(Br)cc3F)c(C(=O)NOCCO)cc21` [Binimetinib], the drug sensitivity score in assay [1] was found to be 0; in assay [2], 0.2.
For the compound `Cc1sc2c(c1C)C(c1ccc(Cl)cc1)=N[C@@H](CC(=O)Nc1ccc(O)cc1)c1nnc(C)n1-2` [Birabresib], the drug sensitivity score in assay [1] and in assay [2] was 15.2 in each case.
In the case of `CC[C@H](NC(=O)[C@H](C)NC)C(=O)N1C[C@@H](O)C[C@H]1Cc1c(-c2[nH]c3cc(F)ccc3c2C[C@@H]2C[C@H](O)CN2C(=O)[C@H](CC)NC(=O)[C@H](C)NC)[nH]c2cc(F)ccc12` [Birinapant], the drug sensitivity score in assay [1] was 10.1; in assay [2], 15.8.
The corresponding values for `Cc1c(N)nc([C@H](CC(N)=O)NC[C@H](N)C(N)=O)nc1C(=O)N[C@H](C(=O)N[C@H](C)[C@@H](O)[C@H](C)C(=O)N[C@H](C(=O)NCCc1nc(-c2nc(C(=O)NCCC[S+](C)C)cs2)cs1)[C@@H](C)O)[C@@H](OC1OC(CO)C(O)C(O)C1OC1OC(CO)C(O)C(OC(N)=O)C1O)c1cnc[nH]1` (some centres undefined) [Bleomycin] are 0 and 0.
For `CC(C)C[C@H](NC(=O)[C@H](Cc1ccccc1)NC(=O)c1cnccn1)B(O)O` [Bortezomib], in that order: 21.3 and 20.1.
The corresponding values for `COc1cc(Nc2c(C#N)cnc3cc(OCCCN4CCN(C)CC4)c(OC)cc23)c(Cl)cc1Cl` [Bosutinib] are 5 and 4.6.
In the case of `COc1cc(N2CCC(N3CCN(C)CC3)CC2)ccc1Nc1ncc(Cl)c(Nc2ccccc2P(C)(C)=O)n1` [Brigatinib], the drug sensitivity score in assay [1] came out at 2.4; in assay [2], 2.
For `Cc1cc2c(F)c(Oc3ncnn4cc(OC[C@@H](C)O)c(C)c34)ccc2[nH]1` [Brivanib], in that order: 0 and 0.
The corresponding values for `CCC/C=C/C=C/C(=O)O[C@H]1/C(=C/C(=O)OC)C[C@H]2C[C@H]([C@@H](C)O)OC(=O)C[C@H](O)C[C@@H]3C[C@H](OC(C)=O)C(C)(C)[C@](O)(C[C@@H]4C/C(=C/C(=O)OC)C[C@H](/C=C/C(C)(C)[C@]1(O)O2)O4)O3` [Bryostatin 1] are 7.9 and 2.3.
For `Nc1cc(C(F)(F)F)c(-c2cc(N3CCOCC3)nc(N3CCOCC3)n2)cn1` [Buparlisib], in that order: 11.3 and 11.9.
On to `Cc1nc2cccc(N)c2c(=O)n1C1CCC(=O)NC1=O` (centres undefined) [CC122], for which the drug sensitivity score in assay [1] and in assay [2] was 0 throughout.
In the case of `CCN1C(=O)CNc2ncc(-c3ccc(-c4nc[nH]n4)nc3C)nc21` [CC-115], the values for the drug sensitivity score in assay [1] and in assay [2] were 12.2 and 12.5, respectively.
For `CO[C@H]1CC[C@H](N2C(=O)CNc3ncc(-c4ccc(C(C)(C)O)nc4)nc32)CC1` [CC-223], the drug sensitivity score in assay [1] was 6.1; in assay [2], 6.
Consider `COc1cc(C)[nH]c(=O)c1CNC(=O)c1c(C)n([C@H](C)C2CCOCC2)c2ccccc12` [CPI-360], for which the drug sensitivity score in assay [1] and in assay [2] was 0 each time.
On to `Cc1noc2c1-c1ccccc1C(c1ccc(Cl)cc1)=N[C@H]2CC(N)=O` [CPI-0610], for which the drug sensitivity score in assay [1] came to 9.4; in assay [2], 10.
For `O=C(O)CCCCC(CCSCc1ccccc1)SCc1ccccc1` (centres undefined) [CPI-613], in that order: 0 and 0.
For `CN(C)c1cc2c(cc1Sc1nc3c(N)nccc3n1CCNCC(C)(C)C)OCO2` [CUDC-305], in that order: 17.6 and 15.9.
The corresponding values for `COc1ccc(-c2nc(N3CCOCC3)c3sc(CN(C)c4ncc(C(=O)NO)cn4)cc3n2)cn1` [CUDC-907] are 38.8 and 40.
With `CO[C@H]1C(=O)[C@]2(C)[C@@H](OC)C[C@H]3OC[C@@]3(OC(C)=O)[C@H]2[C@H](OC(=O)c2ccccc2)[C@]2(O)C[C@H](OC(=O)[C@H](O)[C@@H](NC(=O)OC(C)(C)C)c3ccccc3)C(C)=C1C2(C)C` [Cabazitaxel], the drug sensitivity score in assay [1] stood at 14.6; in assay [2] it was 8.8.
For `COc1cc2nccc(Oc3ccc(NC(=O)C4(C(=O)Nc5ccc(F)cc5)CC4)cc3)c2cc1OC` [Cabozantinib], in that order: 1.3 and 1.6.
In the case of `C=CC(=O)Nc1cc2c(Nc3ccc(F)c(Cl)c3)ncnc2cc1OCCCN1CCOCC1` [Canertinib], the drug sensitivity score in assay [1] amounted to 15.5; in assay [2], 17.8.
Take `CCCCCOC(=O)Nc1nc(=O)n([C@@H]2O[C@H](C)[C@@H](O)[C@H]2O)cc1F` [Capecitabine]: the drug sensitivity score came to 2.3 in assay [1] and 0.2 in assay [2].
For `CNC(=O)c1ccc(-c2cnc3ncc(Cc4ccc5ncccc5c4)n3n2)cc1F` [Capmatinib], in that order: 0 and 0.
The corresponding values for `O=C(O)C1(C(=O)O)CCC1.[NH2-].[NH2-].[Pt+2]` [Carboplatin] are 2.2 and 2.6.
Take `CC(C)C[C@H](NC(=O)[C@H](CCc1ccccc1)NC(=O)CN1CCOCC1)C(=O)N[C@@H](Cc1ccccc1)C(=O)N[C@@H](CC(C)C)C(=O)[C@@]1(C)CO1` [Carfilzomib]: the drug sensitivity score was found to be 24.5 in assay [1] and 22.9 in assay [2].
Turning to `COc1cc2c(Oc3ccc4[nH]c(C)cc4c3F)ncnc2cc1OCCCN1CCCC1` [Cediranib], the drug sensitivity score in assay [1] and in assay [2] was 0 throughout.
`Cc1ccc(-c2cc(C(F)(F)F)nn2-c2ccc(S(N)(=O)=O)cc2)cc1` [Celecoxib]: the figures for the drug sensitivity score in assay [1] and in assay [2] were 0.4 and 0, respectively.
With `CCS(=O)(=O)N1CCN(c2ccc(Nc3ncc(C(N)=O)c(NC4CC4)n3)cc2)CC1` [Cerdulatinib], the drug sensitivity score in assay [1] was 4.4; in assay [2] it was 0.3.
For `Cc1cc(Nc2ncc(Cl)c(Nc3ccccc3S(=O)(=O)C(C)C)n2)c(OC(C)C)cc1C1CCNCC1` [Ceritinib], in that order: 1.8 and 1.9.
The corresponding values for `CCN(CC)CCCC(C)Nc1ccnc2cc(Cl)ccc12` (centres undefined) [Chloroquine] are 7.6 and 7.
The corresponding values for `CC(C)[C@H]1C(=O)N[C@@H](CCCNC(=N)N)C(=O)NCC(=O)N[C@@H](CC(=O)O)C(=O)N[C@H](Cc2ccccc2)C(=O)N1C` [Cilengitide] are 0 and 0.
As for `N.N.[Cl][Pt][Cl]` [Cisplatin], the drug sensitivity score in assay [1] and in assay [2] was 6.5 each time.
With `Nc1nc(Cl)nc2c1ncn2[C@H]1C[C@H](O)[C@@H](CO)O1` [Cladribine], the drug sensitivity score in assay [1] and in assay [2] was 0 each time.
Regarding `Nc1nc(Cl)nc2c1ncn2[C@@H]1O[C@H](CO)[C@@H](O)[C@@H]1F` [Clofarabine], the values for the drug sensitivity score in assay [1] and in assay [2] were 4.4 and 3.9, respectively.
The corresponding values for `CCN(CC)CCOc1ccc(C(=C(Cl)c2ccccc2)c2ccccc2)cc1` [Clomifene] are 5.8 and 4.
The corresponding values for `O=C(c1ccc(F)c(F)c1Nc1ccc(I)cc1F)N1CC(O)([C@@H]2CCCCN2)C1` [Cobimetinib] are 1.7 and 0.3.
The corresponding values for `COc1c(OCCCN2CCOCC2)ccc2c1N=C(NC(=O)c1cnc(N)nc1)N1CCN=C21` [Copanlisib] are 22.4 and 23.4.
